“And” between values parts separate entries of the source, which are not always exact repeats. Equal values may be shown once.

One data set deals with hemorrhagic shock. Conditions: cited from earlier work.
For another data set, the system named is heat stroke. The data set is described as follows: Heat stroke induced by heating blanket in ketamine-anesthetized male rats. Type of data set: in vivo, rat. Conditions: for Body temperature at blood pressure crash (onset of heat stroke): blanket 51.5° C. The procedure: Male rats were used in the study. The first rat weighed approximately 500 g and was anesthetized with ketamine and then wrapped in a heating blanket to raise its body temperature and induce heat stroke. The temperature and blood pressure of the anesthetized rat was monitored with a recording colonic temperature probe and a tail blood pressure cuff. When the symptoms of heat stroke were observed, 1.8 ml of 1.0 mg/ml pure deltorphin D was administered in the tail vein. The amount of deltorphin administered was based on the earlier hemorrhagic studies of Dr. Oeltgrn.
The second male rat was catherized with an arterial line two weeks previous to the next experiment to provide a means for more rapidly providing the deltorphin. The second rat weighed approximately 500 g and was anesthetized with ketamine and then wrapped in a heating blanket set at 51.5° C. to raise its body temperature and induce heat stroke. Prior to being wrapped in the heating blanket, a pre-treatment injection of 1.8 ml of 1.0 mg/ml pure deltorphin was provided through the catheter. The temperature and blood pressure of the anesthetized rat was monitored with a recording colonic temperature probe and blood pressure was monitored and recorded off of the arterial line. […] One hour later, another 1.8 ml of 1.0 mg/ml pure deltorphin was administered through the catheter. At that time, the rat was having difficulty moving.
A third male rat weighing approximately 200 g was catherized with an arterial line the day before the test. The third rat was anesthetized with ketamine and then wrapped in a heating blanket set at 51.5° C. to raise its body temperature and induce heat stroke. Prior to being wrapped in the heating blanket, a pre-treatment injection of 0.7 ml of 1.0 mg/ml pure deltorphin was provided through the catheter. The temperature and blood pressure of the anesthetized rat was monitored with a recording colonic temperature probe and blood pressure was monitored and recorded off of the arterial line. […] Fifteen minutes later, another 0.7 ml of 1.0 mg/ml pure deltorphin was administered through the catheter. The rat died approximately 75 minutes after the onset of heat stroke. […] Nonetheless, the third animal lived for 75 minutes. This survival rate is long when compared to the study reported at Chi WT, Kao TY, Lin MT. Neurosci Res. 1996 24:159-163 wherein rats in which heat stroke was induced lived only about 17 minutes after the onset of heat stroke and continuous perfusion of the animals with saline did nothing to extend their survival.

In the next data set the test system is UbC. The experiment in a line: Northern blot of UbC mRNA in tissues after heat shock with opioid pretreatment. Type of data set: in vivo, rat. Conditions: heat shock 1 h 44° C. The method, then:
(§1) Experiments were undertaken to study the molecular stress response after heat stress with and without opiate pretreatment in rats. Since it is know that both behavior and pain response to opiates are gender-dependent, both male and female rats were used. The animals were treated by exposure to dry heat at a colonic temperature of 44° C. The animals were sacrificed and brain, leg and heart tissue was removed. The molecular stress responses chosen were HSP 70 and ubiquitin. HSP 70 is a chaperone protein which helps repair damaged proteins, and UbB and UbC forms of ubiquitin are induced by cell damage. Messenger RNA was extracted and analyzed using Northern Blot determination of transcript intensity in saline heat shock controls versus pretreatment with DADLE, a non-specific delta opioid agonist, and deltorphin D.
(§2) The subjects were male and female Charles River rats. The rats were divided by sex and by treatment groups. There were four treatment groups: control saline treatment, heat shock-saline treatment, heat shock-DADLE treatment, and heat shock-deltorphin-D treatment. The rats underwent a three-day protocol, receiving injections each day and on the final day undergoing heat shock. The final treatment was given on day three of the experiment, 20 minutes before heat shock. Treatment consisted of intravenous tail injections at 1 mg/kg body weight for all groups. Heat shock was initiated by 1 hour exposure in an incubator at 44° C. The rats were sacrificed 2 hours later and alteration of molecular responses monitored by gel electrophoresis of RNA using Northern blots. DNA sequences for the molecular markers HSP70 and ubiquitin were used to probe the blots. The probes were radioactively labeled with p^32 to label the probe. When the probe “finds” its complementary sequence, it binds to it and the intensity of the signal which results is determined using Molecular Analyst software of the signals on X-ray film. The intensity of the black areas on the film is a measure of gene activity altered by treatment with the respective opioids.

In a further data set the test system is UbB. The data set is described as follows: Northern blot of UbB mRNA in tissues after heat shock with opioid pretreatment. Type of data set: in vivo, rat. Conditions: heat shock 1 h 44° C. The method, then:
as §1, §2

For a further data set, the system named is HSP70. The data set is described as follows: Northern blot of HSP70 mRNA in tissues after heat shock with opioid pretreatment. The format is in vivo, rat. The following applies: heat shock 1 h 44° C. The method, then: as §1, §2
A short description of data set [1]: Change in body core temperature with injections. Conditions: for Changes in Body Temperature, Temperature Day 1 / Changes in Body Temperature, Temperature Day 2: individual animals, 1 mg/kg i.v. tail injection, 1 mg/kg; for Effect on body temperature: summary of Table 3. The format is in vivo, rat. The method, then: as §2
A further data set deals with heat shock. The experiment in a line: Heat shock by 1 hour exposure in incubator at 44° C, sensitivity to heat. Conditions: for Sensitization to heat: male rats, pretreatment; for Protection against heat, earlier work: males. The format is in vivo, rat.
Description: The present invention centers on the concept of using opioids as a protective agent against heat shock. Earlier work studied how two opioids, deltorphin D and DADLE would affect molecular stress response to heat and survival. […] The current study focused on the use of deltorphin D to protect against heat stroke by administration before, after, or before and after, heat stroke. Heat stroke is defined as a rapid rise in blood pressure followed by a crash in pressure in response to overheating.
as §2

Another data set concerns HSP 70 and ubiquitin. The experiment in a line: Molecular stress response (HSP 70 and ubiquitin) after heat stress, overall. Type of data set: in vivo, rat. Conditions: pretreatment before heat shock; drug-unique patterns. The procedure:
as §1
The subjects were male and female Charles River rats. The rats were divided by sex and by treatment groups. […] The rats were sacrificed 2 hours later and alteration of molecular responses monitored by gel electrophoresis of RNA using Northern blots. […] When the probe “finds” its complementary sequence, it binds to it and the intensity of the signal which results is determined using Molecular Analyst software of the signals on X-ray film. […]

Data set [2] in a line: Change in body core temperature with injections. The format is in vivo, rat. Conditions: for Effect on body temperature, earlier work: males.
The next data set relates to cerebral ischemia. The following applies: ischemia in mammals; cited from earlier work.
The mark [3] stands for this setting: second rat, 1.8 ml of 1.0 mg/ml before heating and one hour after onset, through catheter.
[4] abbreviates: Female Brain, 1 mg/kg i.v. tail injections over 3 days, sacrificed 2 hours later.
Setting [5] is: Male rats, individual animals, 1 mg/kg i.v. tail injection, 1 mg/kg.

Consider [D-Ala2-MePhe4-Glyol]enkephalin [DAGO], for which the “Restoration of mean arterial pressure after hemorrhage” value in the data set with hemorrhagic shock (bleeding non-lethal, Feuerstein et al. 1985) was “restore mean arterial pressure after hemorrhage”.

In the case of “Tyr-D-Ala-Phe-Ala-Asp-Val-Ala-Ser-Thr-Ile-Gly-Asp-Phe-Phe-His-Ser-Ile-NH2 (AFADVASTIGDFFHSI; N-terminal Tyr-D-, C-amide; printed: Ala-Phe-Ala-Asp-Val-Ala-Ser-Thr-Ile-Gly-Asp-Phe-Phe-His-Ser-Ile-) [deltorphin D, linear 17 amino acid opioid peptide synthesized on a commercial peptide synthesizer]”, the “Survival after heat stroke” value in the data set on heat stroke (first rat, approx. 500 g, 1.8 ml of 1.0 mg/ml in the tail vein when symptoms of heat stroke were observed) was “survived only a few minutes”; in the data set with heat stroke (setting [3]) it was “alive and healthy more than four weeks after the test”. The “Body temperature at blood pressure crash (onset of heat stroke)” value with heat stroke (second rat, approx. 500 g, pre-treatment 1.8 ml of 1.0 mg/ml through arterial catheter) amounted to 41 °C; in the data set on heat stroke (third rat, approx. 200 g, pre-treatment 0.7 ml of 1.0 mg/ml through arterial catheter) it was 41 °C. Also, in the data set with heat stroke (setting [3]), the “Ability to drink seven hours after the onset of heat stroke” value is “able to drink 5 ml of water out of a pipette”. For the same compound, the “Ability to move two hours after the onset of heat stroke” value in the data set with heat stroke (setting [3]) is given as “able to move some on its own”. For the same compound, in the data set with heat stroke (third rat, approx. 200 g, 0.7 ml of 1.0 mg/ml before heating and fifteen minutes after onset, catheter installed the day before), the “Survival time after the onset of heat stroke” value was “approximately 75 minutes”. Moreover, the “Survival relative to expected time in the absence of deltorphin administration” value in the data set with heat stroke (third rat, compared with about 17 minutes in Chi et al. 1996) is reported as “more than four times the expected time”. Moreover, the “UBC measurement (Northern blot transcript intensity)” value in the data set on UbC (setting [4]) turned out to be 0.7664; in the data set with UbC (Female Heart, 1 mg/kg i.v.) it was 0.8595; in the data set with UbC (Female Leg, 1 mg/kg i.v.), 0.2439; in the data set on UbC (Male Brain, 1 mg/kg i.v.) it was 1.694; in the data set with UbC (Male Heart, 1 mg/kg i.v.), 0.04345; in the data set on UbC (Male Leg, 1 mg/kg i.v.), 0.1339. Moreover, the “UBB measurement (Northern blot transcript intensity)” value in the data set on UbB (setting [4]) worked out at 2.844; in the data set on UbB (Female Heart, 1 mg/kg i.v.), 2.845; in the data set on UbB (Female Leg, 1 mg/kg i.v.), 2.803; in the data set on UbB (Male Brain, 1 mg/kg i.v.), 2.259; in the data set with UbB (Male Heart, 1 mg/kg i.v.) it was 0.5613; with UbB (Male Leg, 1 mg/kg i.v.) it was 2.319. Also, the “HSP measurement (Northern blot transcript intensity)” value with HSP70 (setting [4]) was determined as 0.02634; with HSP70 (Female Heart, 1 mg/kg i.v.) it was 1.27; with HSP70 (Female Leg, 1 mg/kg i.v.), 0.9001; in the data set on HSP70 (Male Brain, 1 mg/kg i.v.), 1.043; in the data set on HSP70 (Male Heart, 1 mg/kg i.v.) it was 0.3697; with HSP70 (Male Leg, 1 mg/kg i.v.) it was 0.6697. Further, the “Changes in Body Temperature, Temperature Day 1” value in data set [1] (Female rats) is −0.7 (2×) and 0.2 and −1.6 and −1.5; in data set [1] (Male rats) it was −2.6 and −2.2 and −1.2 and −3.1. Also, the “Changes in Body Temperature, Temperature Day 2” value in data set [1] (Female rats) was −1.4 and −1.7 and −1.6 and −1.9 and −2.8; in [1] (Male rats), −2.9 and −1.4 and −0.7 and −2.2. In addition, in data set [1], the “Effect on body temperature” value is on record as “lowers body temperature significantly”. The Sensitization to heat result with heat shock was “not”. In addition, the “Protection against heat, earlier work” value with heat shock is “protective against heat”. Further, the “Alteration of the molecular stress response” value in the data set on HSP 70 and ubiquitin is recorded as “significant (p<0.05) alteration of the molecular stress response”. Besides, the “Effect on body temperature, earlier work” value in data set [2] is listed as “lowered body temperature”. Moreover, the “Effect on neurological deficit and cerebral infarct volume” value with cerebral ischemia was “decreasing neurological deficit and cerebral infarct volume”.

Turning to `CC(C)C[C@@H](NC(=O)[C@H](Cc1ccccc1)NC(=O)CNC(=O)[C@@H](C)NC(=O)[C@@H](N)Cc1ccc(O)cc1)C(=O)O` [DADLE, [D-Ala2-D-Leu5]enkephalin acetate (Tyr-D-Ala-Gly-Phe-D-Leu), reference compound], the “UBC measurement (Northern blot transcript intensity)” value in the data set on UbC (setting [4]) is 0.7993; in the data set with UbC (Female Heart, 1 mg/kg i.v.), 0.5605; with UbC (Female Leg, 1 mg/kg i.v.), 0.8995; with UbC (Male Brain, 1 mg/kg i.v.), 2.356; in the data set on UbC (Male Heart, 1 mg/kg i.v.), 0.5837; in the data set with UbC (Male Leg, 1 mg/kg i.v.) it was 0.18. The “UBB measurement (Northern blot transcript intensity)” value worked out at 1.688 in the data set with UbB (setting [4]); 3.57 in the data set on UbB (Female Heart, 1 mg/kg i.v.); 2.76 in the data set with UbB (Female Leg, 1 mg/kg i.v.); 4.596 with UbB (Male Brain, 1 mg/kg i.v.); 0.7754 in the data set with UbB (Male Heart, 1 mg/kg i.v.); 0.6005 in the data set with UbB (Male Leg, 1 mg/kg i.v.). Moreover, the “HSP measurement (Northern blot transcript intensity)” value in the data set on HSP70 (setting [4]) is listed as 1.295; with HSP70 (Female Heart, 1 mg/kg i.v.), 0.8958; in the data set on HSP70 (Female Leg, 1 mg/kg i.v.), 0.884; in the data set on HSP70 (Male Brain, 1 mg/kg i.v.) it was 1.391; with HSP70 (Male Heart, 1 mg/kg i.v.), 0.5364; in the data set on HSP70 (Male Leg, 1 mg/kg i.v.), 0.3294. Further, the “Changes in Body Temperature, Temperature Day 1” value was −2.4 and 0.45 and −1.85 and −0.85 in [1] (Female rats); 2.36 and 1.82 in data set [2] (setting [5]). The “Changes in Body Temperature, Temperature Day 2” value in data set [1] (Female rats) is −3.45 and −1.65 and −1.45 and −0.35; in [2] (setting [5]), 1.55 and 0.2. Further, the “Effect on body temperature” value in [1] is reported as “raises body temperature”. Also, the Sensitization to heat result in the data set with heat shock is “sensitized male rats to heat”. The “Protection against heat, earlier work” value with heat shock is “did not show these effects”. Also, the “Alteration of the molecular stress response” value with HSP 70 and ubiquitin is recorded as “significant (p<0.05) alteration of the molecular stress response”. For the same compound, in data set [2], the “Effect on body temperature, earlier work” value was “did not show these effects”. Further, the “Effect on fallen mean arterial pressure” value with hemorrhagic shock (Summers et al. 2003) is given as “quickly reverses fallen mean arterial pressure”. The “Survival of hemorrhagic shock” value with hemorrhagic shock (Summers et al. 2003) is reported as “increase survival of hemorrhagic shock”.

(Values after patent publication US20050130893A1, “Use of opioids in prevention of and recovery from a stress-induced crash in blood pressure” (priority 2003, published 2005).)
